How the values were obtained:
Tg2576 mice = assay: Contextual Fear Conditioning in Tg2576 mice; assay type: in vivo, mouse; settings: 20 mg/kg i.p. before CFC training, retention 24 h later
Method: 7 months old Tg2576 mice and WT mice were treated with either CPP-SCR or CPP-RB5 (20 mg/kg, i.p.) before Contextual Fear Conditioning (CFC) training and tested for memory retention 24 h later. Contextual Fear (CF) memory impairment in Tg2576 mice is fully rescued by RB5 treatment. Values are reported as % of time spent freezing. Data are expressed as Mean±SEM. *p<0.05**p<0.01.
Mice protocol: after 120 sec of exploration, mice received 5 foot shocks (0.7 mA, 2-s duration, separated by 60-s intervals) delivered through the grid floor. Context Fear Memory was assessed 24 h later by returning mice for 5 min to the conditioning chamber and not delivering a foot shock.
For all protocols, freezing behavior served as a measure of conditioned fear to the context during the conditioning and retrieval tests of the behavioural procedures. This was video-recorded and quantified by an observer blind to the experimental group. One unit of freezing was defined as a continuous absence of movement other than that required for respiration in 1 s sampled every 10 s.

[1] = tested on: ERK signalling in the striatum; assay: Single in vivo injection, IHC/immunofluorescence of nuclear and cytoplasmic ERK markers in striatum; parameters: species or system mouse; settings: 1 h
Method: a) RB5 peptide selectively promoted activation of ERK2. Acute striatal slices either pre-treated with Scramble (SCR) or RB5 peptide (50 μM) and then stimulated 10 minutes with glutamate (GLU) (100 μM) or vehicle were analysed in Western blot (left panel) and probed with anti phospho ERK antibodies (p44^ERK1 and p42^ERK2) and anti ERK1/2 antibody. GAPDH was used as loading control. […] No changes were detected in the total ERK1 and ERK2 levels. GAPDH was used as loading control. […] Mice injected with a single dose of CPP-SCR or CPP-RB5 peptides (20 mg/kg, i.p.) were rapidly perfused 1 h later and brains were dissected and further analysed for IHC and immunofluorescence. Representative photomicrographs of pERK1/2, pMSK, pAch3, pELK1 and c-Fos expression in the striatum. […] Two-way ANOVA Bonferroni post hoc comparison: one black star, p<0.05, two black stars, p<0.01, one white star, p<0.001. p) Dose response curve of RB5 peptide for ERK activation. 200 μm thick striatal slices were freshly prepared from 2-month old mice and transferred into a perfusion chamber for 1 h at 32° C. Slices were pre-treated with different doses of RB5 or scrambled control. After 1 h, slices for each dose was fixed in PFA 4% for 15 min. 18 μm cryo-sections were processed for immunohistochemistry with anti-phospho p44/p42 MAP kinase. Neuronal quantification was performed with ImageJ software by counting the number of phospho-ERK positive cells in each slice. The level of activation is expressed on the Y-axis as arbitrary units (AU). Doses are reported in a logarithmic scale (Log 10) on the X-axis. The EC50 was calculated using GraphPad Prism software.
At the indicated times after drug treatments, animals were anaesthetised and transcardially perfused with ice-cold buffered 4% PFA. Brains were extracted, post-fixed overnight and transferred to 30% buffered sucrose for 24 h. Coronal sections were cut to a 35 μm thickness on a freezing microtome and stored in a cryoprotective solution at −20° C. until processing for immunohistochemistry or immunofluorescence.
1 h after CPP-RB5/CPP-SCR (20 mg/kg, i.p.) mice were anaesthetized and perfused via intracardiac infusion of ice-cold 4% PFA. Brains were rapidly extracted, post-fixed overnight and transferred to 25% buffered sucrose for 24 h. Coronal sections were cut at 30 μm thickness on a freezing microtome and stored in a cryoprotective solution at −20° C. until they were processed for immunohistochemistry. Free-floating sections were incubated with primary antibodies against anti-phospho-p44/42 MAP kinase (Thr202/Tyr204), anti-phospho-Elk-1 (Ser383), anti-phospho-Kv4.2 (Thr607)-R, anti-phospho-MSK-1, anti-phospho-MEK-1, c-Fos and Tyrosine Hydroxylase overnight at 4° C. Sections were then incubated with biotinylated goat anti-rabbit IgG (1:200, Vector Labs) for 2 h. Detection of the bound antibodies was carried out using a standard peroxidase-based method (ABC-kit, Vectastain, Vector Labs), followed by a DAB and H2O2 solution. Quantification of positive neurons were counted from striatum in 2-3 sections per mouse, bilaterally. Sample areas were visualized under a 20× objective in a Leica DM IRB microscope by a blind investigator to condition and counts per region were averaged across the sections using the ImageJ software.

[2] = tested on: C57BL/6 mice treated with 3-NP; assay: 3-Nitropropionic acid (3-NP) pharmacological mouse model of Huntington's disease; assay type: in vivo; settings: 20 mg/kg i.p. twice a day, 3-NP 50 mg/kg once a day, 7 days
Method: Importantly, this reduction resembled physiological condition (RB5 3-NP vs RB5 Saline p=0.85). Mean±SEM, n=10 each experimental group).
Before use, CCP-SCR and CPP-RB5 were diluted in PBS 1× and injected twice a day at 12 hr intervals (20 mg/kg). 3-NP was injected 1 h after peptides once a day for 7 consecutive days (50 mg/kg) in male C57B/6 mice. All drugs were administered by intraperitoneal (i.p.) injection in a volume of 10 ml/kg. The mice were euthanized 1 hr after the last peptide injection and transcardially perfused with buffered 4% PFA, and processed for immunohistochemistry. The DeadEnd Colorimetric TUNEL System (Promega) was used to detect apoptotic cells on tissue sections […] thick. For each animal three consecutive coronal sections were taken, mounted on glass slides and processed for immunohistochemical analysis according to the recommended procedures. For quantification, the number of positive neurons in each section was counted across the dorsolateral region of the striatum of both hemispheres and means values were calculated.
We set up a protocol in which male C57BL/6 mice were injected with CPP-SCR or CPP-RB5 peptides (20 mg/kg, i.p.) twice a day (every 12 h) for 7 days and 1 h after peptides injection they received one injection of 3-NP (50 mg/kg). At the end of treatment, animals were perfused and brains were prepared as for immunohistochemistry.

Row | Molecule | Contextual Fear (CF) memory impairment (% of time spent freezing) (Tg2576 mice) | nuclear ERK-dependent signalling and gene transcription (pMSK, pAcH3, pELK, c-Fos) ([1]; 20 mg/kg i.p.) | striatal ERK phosphorylation (pERK1/2) ([1]; 20 mg/kg i.p.) | cytoplasmic signalling measured by ribosomal S6 phosphorylation ([1]; 20 mg/kg) | phosphorylation of voltage-gated potassium channel (pKv4.2) and MEK-1 ([1]; 20 mg/kg, vs CPP-SCR) | Caspase-3 levels (striatum) [2] | apoptotic levels (TUNEL, striatum) [2] | phosphorylation of the cytoplasmic markers (pMEK-1, pVGK+, pS6) ([1]; 20 mg/kg i.p.)
1 | GRKKRRQRRRPPQGGGGGEPRRTEGVGPGVPGEVEMVKGQPFDV (listed as Homo sapiens) [CPP-RB5] | rescued already present memory impairments in aged Tg2576 mice back to WT levels | significantly increased | significantly enhanced | at a lesser extent reduced | comparable between the two treatments | reduce pre-apoptotic levels of Caspase 3 marker to control levels | reducing apoptosis to control levels | 
2 | CSCC[C@H](NC(=O)[C@H](CCC(=O)O)NC(=O)[C@@H](NC(=O)[C@H](CCC(=O)O)NC(=O)CNC(=O)[C@@H]1CCCN1C(=O)[C@@H](NC(=O)CNC(=O)[C@@H]1CCCN1C(=O)CNC(=O)[C@@H](NC(=O)CNC(=O)[C@H](CCC(=O)O)NC(=O)[C@@H](NC(=O)[C@H](CCCNC(=N)N)NC(=O)[C@H](CCCNC(=N)N)NC(=O)[C@@H]1CCCN1C(=O)[C@H](CCC(=O)O)NC(=O)CNC(=O)CNC(=O)CNC(=O)CNC(=O)CNC(=O)[C@H](CCC(N)=O)NC(=O)[C@@H]1CCCN1C(=O)[C@@H]1CCCN1C(=O)[C@H](CCCNC(=N)N)NC(=O)[C@H](CCCNC(=N)N)NC(=O)[C@H](CCCNC(=N)N)NC(=O)[C@H](CCC(N)=O)NC(=O)[C@H](CCCNC(=N)N)NC(=O)[C@H](CCCNC(=N)N)NC(=O)[C@H](CCCCN)NC(=O)[C@H](CCCCN)NC(=O)[C@H](CCCNC(=N)N)NC(=O)CNC(C)=O)[C@@H](C)O)C(C)C)C(C)C)C(C)C)C(=O)N[C@H](C(=O)N[C@@H](CCCCN)C(=O)NCC(=O)N[C@@H](CCC(N)=O)C(=O)N1CCC[C@H]1C(=O)N[C@@H](Cc1ccccc1)C(=O)N[C@@H](CC(=O)O)C(=O)N[C@@H](C(=O)O)C(C)C)C(C)C [RB5] | fully rescued | selective activation | enhanced |  |  | diminished Caspase-3 levels | significant reduction of apoptotic levels | did not influence

Source: US11471502B2, “Neuroprotective peptide” (UNIVERSITY COLLEGE CARDIFF C[…], priority 2017, dated 2022)
